From patent publication US20230069586A1, “METHODS OF USING ANDROGRAPHOLIDE, ORIDONIN AND ISOLIQUIRITIGENIN AND DERIVATIVES THEREOF” (THE REGENTS OF THE UNIVERSITY OF CALIFORNIA, priority 2020, published 2023)

Columns and labels:
[1] = tested on: DEFB103 (Human β-defensin 3) mRNA expression; assay: DEFB103 (human β-defensin 3) mRNA expression in hTCEpi cells, quantitative PCR; format: cell-based; conditions: hTCEpi corneal epithelial cells, treated individually, 24 hours
Experimental: Telomerase immortalized human corneal epithelial cells (hTCEpi cells, passage 40-50) were grown in 6-well plates to 80-90% confluence. Cells were treated with andrographolide, oridonin, isoliquiritigenin (Selleck Chem) individually for 24 hours, at concentrations previously determined to have no effect on cellular viability based on cell morphology, MTT assay and RNA yield. Vehicle control type was based on manufacturers' diluent recommendation and concentration was equivalent to the diluent concentration in the highest treatment (andrographolide and oridonin: DMSO, isoliquiritigenin: ethanol). After 24 hours, media was aspirated from each well and washed with sterile PBS. Total RNA was extracted (GeneJet) and quantified (NanoDrop). Approximately 50 ng of total RNA from each sample was reverse transcribed and quantitative PCR was performed using […] for DEFB103 (ThermoFisher), and GAPDH specific aptamers were used as a control. Expression of DEFB103 was calculated using the 2^-ddCt method. A one-way ANOVA was performed to determine statistical significance with a post-hoc test to determine individual differences.
Separate time course experiments were performed as described above, where data points were taken at 2, 6, 12, and 24 hours.

[2] = tested on: human β-defensin 3 (hBD3) peptide; assay: hBD3 peptide expression in hTCEpi cells, ELISA of supernatant; format: cell-based; conditions: increasing concentrations, 48 hours
Experimental: hTCEpi cells were seeded into a 6-well plate coated with FNC material and allowed to grow to 80% confluence. The cells were subsequently treated with increasing concentrations of andrographolide (10, 25, 50, 75, 100 μM), oridonin (1, 2, 5, 10, 15 μM), isoliquiritigenin (5, 10, 15, 25, 50 μM) for 48 hours, and a negative control (vehicle: DMSO or EtOH). After treatment, the supernatant was collected and 100 μl was used to quantify hBD3 peptide concentration (Defensin 3, beta (human) ELISA Kit, Phoenix Pharmaceuticals Inc) and performed in duplicate for each treatment. An hBD3 peptide standard curve was generated from the ELISA kit reagents. The concentration of each experimental well was determined from the linear regression equation generated from the absorbance values of the hBD3 standards. […] It is important to note that the majority of the AMP research fails to detect peptide concentrations from both in vitro and in vivo experiments despite observing upregulation at the mRNA level and the ability to augment antimicrobial activity of cells in either context.

## oridonin
[1]
  increase of human β-defensin 3 mRNA expression over vehicle control alone: 4 fold
[2]
  hBD3 peptide expression: below the limit of detection

## C=C1CC[C@@H]2[C@](C)(CO)[C@H](O)CC[C@@]2(C)[C@@H]1C/C=C1/C(=O)OC[C@H]1O [andrographolide]
[1]
  increase of human β-defensin 3 mRNA expression over vehicle control alone: 360 fold
[2]
  hBD3 peptide expression: markedly upregulated in a dose-dependent manner

## O=C(/C=C/c1ccc(O)cc1)c1ccc(O)cc1O [isoliquiritigenin]
[1]
  increase of human β-defensin 3 mRNA expression over vehicle control alone: 9-10 fold
[2]
  hBD3 peptide expression: below the limit of detection
